Measured values from US20250090705A1, “STERILIZATION METHOD AND STERILIZATION DEVICE” (OSAKA UNIVERSITY, priority 2021, published 2025).
Where two headings read alike, the source gives them in different places.

Columns and labels:
[1] = cited from earlier work
[2] = cited from earlier work; remark: listed apart in the source
[3] = test system: bacterial spores (Geobacillus stearothermophilu); assay: first and second sterilization tests, large container (90 L), nebulizer method, BI in sterilization bag, CFU assay; type: cell-based; settings: 90 L container, 10^5 CFU spores in glassine paper bag
Procedure: (§1) The following description will discuss, with reference to FIGS. 2 to 5, results of sterilization tests each using the sterilization device 1 that generates peroxynitric acid gas by a nebulizer method. Here, the sterilization tests were carried out with use of the sterilization device 1 that includes (i) the peroxynitric acid gas generation section 10, which is as illustrated in FIG. 1 and which generates the peroxynitric acid gas by a nebulizer method and (ii) the sterilization treatment section 20 in which the sterilization container 21 having a capacity of 90 L is used. The peroxynitric acid solution was used in an amount of approximately 15 mL per minute in the peroxynitric acid gas generation section 10. The peroxynitric acid mist and the peroxynitric acid gas in the sterilization container 21 were configured to be recirculated into the second container 12 instead of being discharged outside through the air outlet 24.
FIG. 2 is a graph showing a result of a first sterilization test using a large container. FIG. 3 is a graph showing a result of a second sterilization test using a large container. […]

[4] = test system: bacterial spores (Geobacillus stearothermophilu); assay: third and fourth sterilization tests, large container (90 L), BI in sterilization bag, on-off test (turbidity of culture solution); type: cell-based; settings: 90 L container, 10^6 CFU spores in glassine paper bag
Procedure: as §1
FIG. 4 is a table showing a result of a third sterilization test using a large container. FIG. 5 is a table showing a result of a fourth sterilization test using a large container. The BI is one in which 10^6 CFU bacterial spores (Geobacillus stearothermophilu) are supported on a stainless steel disk and the stainless steel disk is in the sterilization bag 23 made of glassine paper. […]

[5] = test system: bacterial spores (Geobacillus stearothermophilu); assay: fifth sterilization test, small container (approximately 0.3 L), BI in sterilization bag, CFU assay, survival curves, D value; type: cell-based
Excerpt: Subsequently, the following description will discuss, with reference to FIGS. 6 and 7, a result of a sterilization test using the sterilization device 1 that generates peroxynitric acid gas by a nebulizer method. The capacity of the sterilization container 21 was as large as 90 L in the sterilization tests in FIGS. 2 to 5, whereas the capacity of the sterilization container 21 was as small as approximately 0.3 L in the sterilization test in FIGS. 6 and 7. The peroxide solution was used in an amount of approximately 3 mL per minute in the peroxynitric acid gas generation section 10. The peroxynitric acid gas in the sterilization container 21 is discharged outside through the air outlet 24 instead of being recirculated into the second container 12.
FIG. 6 is a graph showing a result of a fifth sterilization test using a small container. The BI is one in which 10^5 CFU bacterial spores (Geobacillus stearothermophilu) are supported on a stainless steel disk and the stainless steel disk is in the sterilization bag 23 made of glassine paper. […]
FIG. 7 is a table showing microbicidal activity determined from each of the survival curves S10, S100, S200, S600a, and S600b that are shown in FIG. 6. […] A D value [s] is a time which is calculated from a survival curve and at which the number of living microorganisms reaches 1/10. […]

[6] = test system: spore solution (Bacillus subtilis) on pig skin; assay: sixth sterilization test, contaminated pig skin model, CFU assay; type: cell-based; settings: peroxynitric acid solution 100 mM, approximately 0.3 L container, Bacillus subtilis spores
Excerpt: Subsequently, the following description will discuss, with reference to FIG. 8, a result of a sterilization test using the sterilization device 1 that generates peroxynitric acid gas by a nebulizer method. In the sterilization test shown in FIG. 8, with the aim of application to biological disinfection, a contaminated pig skin model was sterilized by the nebulizer method.
FIG. 8 is a graph showing a result of a sixth sterilization test using a contaminated pig skin model. A 10^6 CFU spore solution (Bacillus subtilis) was applied to pig skin that had been shaved, cleaned, and subjected to sterilization treatment in advance, and the pig skin was dried so as to be a contaminated model. Such a contaminated pig skin model was regarded as the sterilization target 22 and housed in the sterilization container 21 having a capacity of approximately 0.3 L. In so doing, a surface of the contaminated pig skin model was made perpendicular to a direction in which a gas containing the peroxynitric acid gas and the peroxynitric acid mist flowed. A molar concentration of the peroxynitric acid solution to be placed in the second container 12 was set to 100 mM. After the sterilization test, a stomachere was used to collect bacteria on not only a front surface but also a back surface of the contaminated pig skin model, and the CFU assay was carried out.

[7] = half-time of peroxynitric acid solution versus temperature; type: physicochemical; settings: pH 2.9
Procedure: FIG. 10 is a graph showing half-time of a peroxynitric acid solution. As shown in the graph, the peroxynitric acid solution that has a lower temperature (which may be ambient temperature) has a longer half-time. For example, the peroxynitric acid solution that has pH of 2.9 has a half-time of 132 minutes at 2° C. of the temperature of the peroxynitric acid solution, has a half-time of 26 minutes at 10° C. of the temperature of the peroxynitric acid solution, has a half-time of 7.8 minutes at 20° C. of the temperature of the peroxynitric acid solution, has a half-time of 2 minutes at 30° C. of the temperature of the peroxynitric acid solution, and has a half-time of 0.6 minutes at 40° C. of the temperature of the peroxynitric acid solution. The half-time of the peroxynitric acid solution thus depends on temperature.

[8] = 1 atmospheric pressure, cited from earlier work
[9] = peroxynitric acid solution 10 mM
[10] = peroxynitric acid solution 600 mM

## O=[N+]([O-])O [Nitric acid, nitric acid]
[1]
  pKa: approximately −1.4
[2]; 20° C.
  vapor pressure: 6.4 kPa

## O=S(=O)(O)O [Sulfuric acid, sulfuric acid]
[2]; 25° C.
  vapor pressure: 0.0067 Pa

## O=P(O)(O)O [phosphoric acid]
[2]; 20° C.
  vapor pressure: 4 Pa

## peroxynitric acid [peroxynitric acid solution]
[3]; [9]
  time in which the BI was sterilized (living microorganisms equal to or lower than detection limit): 3 min
[3]; [10]
  time in which the BI was sterilized (living microorganisms equal to or lower than detection limit): 1 min
[4]; [9]
  time in which the BI was sterilized (on-off test): 10 min
[4]; [10]
  time in which the BI was sterilized (on-off test): 1 min
[5]; 10, 100, 200 and 600 mM, approximately 0.3 L container, 10^5 CFU spores, CFU assay
  microbicidal activity from survival curves: higher molar concentration achieves higher microbicidal activity
[5]; calculated from survival curves S10, S100, S200, S600a, S600b
  microbicidal activity 1/D (reciprocal of D value): proportional to the molar concentration
[6]
  time in which the contaminated pig skin model was sterilized: 3 min
[7]; 2° C.
  half-time: 132 min
[7]; 10° C.
  half-time: 26 min
[7]; 20° C.
  half-time: 7.8 min
[7]; 30° C.
  half-time: 2 min
[7]; 40° C.
  half-time: 0.6 min
[8]; 4.55° C. (277.7 K)
  half-time: 97 s
[8]; 24.85° C. (298 K)
  half-time: 12 s
